Measured values from patent US20190284192A1, “NITROGENOUS MACROCYCLIC COMPOUND, PREPARATION METHOD THEREFOR, PHARMACEUTICAL COMPOSITION AND APPLICATION THEREOF” (LUOXIN PHARMACEUTICAL (SHANGHAI) CO., LTD., priority 2016, published 2019).
Where a name gives a salt, the structure may show the parent alone. Read-outs that look alike come from different tables or passages of the source.

How the values were obtained:
BRD4 (BD2) = molecular target: T1, BRD4 (BD2) (Homo sapiens, UniProt O60885); experiment: BRD4 (BD2) bromodomain binding, HTRF; settings: 2 h incubation at r.t.
T1 construct: Each member comprises two tandem bromodomains (BD1 and BD2) for recognizing the acetylated lysine residues

BRD4 (BD1) = molecular target: T2, BRD4 (BD1) (Homo sapiens, UniProt O60885); experiment: BRD4 (BD1) bromodomain binding, HTRF; settings: 2 h incubation at r.t.
T2 construct: Each member comprises two tandem bromodomains (BD1 and BD2) for recognizing the acetylated lysine residues

MV-4-11 cells = experiment: Inhibitory effect on MV-4-11 cells (CellTiter-Glo); format: cell-based; settings: Homo sapiens, read-out: MV-4-11
[1] = MV4-11, 72 hours, CellTiter-Glo

IC50 (BRD4 (BD2)) [nM] | IC50 (BRD4 (BD1)) [nM] | IC50 (MV-4-11 cells; [1]) [nM] | SMILES | IC50 (MV-4-11 cells; MV4-11, 72 h) [nM]
1 | 4 | 15 | CCNC(=O)C[C@@H]1N=C(c2ccc(Cl)cc2)c2cc(F)ccc2-c2cn(C)c(=O)cc21 [Compound 4034, (S)-2-(7-(4-chlorophenyl)-9-fluoro-2-methyl-3-oxo-3,5-dihydro-2H-benzo[c]pyrido[3,4-e]azepin-5-yl)N-ethyl acetamide] | 
9 | 17 |  | CNS(=O)(=O)Nc1ccc2c(c1)-c1cn(C)c(=O)cc1[C@H](C)N=C2c1ccc(F)cc1 [Compound 4050, (S)—N-(7-(4-flurophenyl)-2,5-dimethyl-3-oxo-3,5-dihydro-2H-benzo[c]pyrido[3,4-e]azepin-10-yl)methylamine sulfonamide] | 
1 | 2 | 6 | CCS(=O)(=O)Cc1ccc2c(c1)-c1cn(C)c(=O)cc1[C@H](C)N=C2c1ccc(Cl)cc1 [Compound 4037, (S)-10-((ethylsulfonyl)methyl)-7-(4-chlorophenyl)-2,5-dimethyl-2,5-dihydro-3H-benzo[c]pyrido[3,4-e]azepin-3-ketone] | 
2 | 6 | 17 | CCNC(=O)C[C@@H]1N=C(c2ccc(Cl)cc2)c2ncccc2-c2cn(C)c(=O)cc21 [Compound 4030, (S)-2-(7-(4-chlorophenyl)-2-methyl-3-oxo-3,5-dihydro-2H-dipyrido[2,3-c:3′,4′-e]azepin-5-yl)-N-ethyl acetamide] | 
10 | 11 | 134 | COc1ccc2c(c1)C(c1ccc(F)cc1)=NCc1cc(=O)n(C)cc1-2 [Compound 4020, 7-(4-fluorophenyl)-9-methoxy-2-methyl-2,5-dihydro-3H-benzo[c]pyrido[3,4-e]azepin-3-one] | 
2 | 2 | 28 | CC[S+]([O-])Cc1ccc2c(c1)-c1cn(C)c(=O)cc1[C@H](C)N=C2c1ccc(F)cc1 (stereo partly drawn) [Compound 4048, (5S)-10-((ethylsulfoxide)methyl)-7-(4-flurophenyl)-2,5-dimethyl-2,5-dihydro-3H-benzo[c]pyrido[3,4-e]azepin-3-ketone] | 
1 | 1 | 1 | CCS(=O)(=O)Nc1cc2c(cc1F)C(c1ccc(Cl)cc1)=N[C@@H](C)c1cc(=O)n(C)cc1-2 [Compound 4062, (S)—N-(7-(4-chlorophenyl)-9-fluoro-2,5-dimethyl-3-oxo-3,5-dihydro-2H-benzo[c]pyrido[3,4-e]azepin-10-yl)ethylsulfonamide] | 
2 | 7 | 75 | CCS(=O)(=O)Cc1ccc2c(c1)-c1cn(C)c(=O)cc1CN=C2c1ccc(Cl)cc1F [Compound 4013, 7-(4-chloro-2-fluorophenyl)-10-((ethylsulfone)methyl)-2-methyl-2,5-dihydro-3H-benzo[c]pyrido[3,4-e]azepin-3-ketone] | 
1 | 3 |  | CCNC(=O)C[C@@H]1N=C(c2ccc(F)cc2)c2c(ccc(OC)c2F)-c2cn(C)c(=O)cc21 [Compound 4035, (S)—N-ethyl-2-(8-fluoro-7-(4-flurophenyl)-9-methoxyl-2-methyl-3-oxo-3,5-dihydro-2H-benzo[c]pyrido[3,4-e]azepin-5-yl)acetamide] | 
28 | 113 |  | Cn1cc2c(cc1=O)CNC(c1ccc(F)cc1)c1ccc(CS(C)(=O)=O)cc1-2 (centres unmarked) [Compound 4008, 7-(4-fluorophenyl)-2-methyl-10-(methylsulfonemethyl)-6,7-dihydro-2H-benzo[c]pyrido[3,4-e]azepin-3(5H)-ketone formate] | 
2 | 4 | 35 | C[C@@H]1N=C(c2ccc(F)cc2)c2cc(Cl)c(N)cc2-c2cn(C)c(=O)cc21 [Compound 4069, (S)-10-amino-9-chloro-7-(4-flurophenyl)-2,5-dimethyl-2,5-dihydro-3H-benzo[c]pyrido[3,4-e]azepin-3-ketone] | 
1 | 1 | 8 | C[C@@H]1N=C(c2ccc(F)cc2)c2ccc(CS(=O)(=O)C3CC3)cc2-c2cn(C)c(=O)cc21 [Compound 4045, (S)-7-(4-flurophenyl)-2,5-dimethyl-10-((cyclopropylsulfone)methyl)-2,5-dihydro-3H-benzo[c]pyrido[3,4-e]azepin-3-ketone] | 
2 | 1 | 8 | C[C@@H]1N=C(c2ccc(F)cc2)c2ccc(CS(=O)(=O)C(F)(F)F)cc2-c2cn(C)c(=O)cc21 [Compound 4043, (S)-7-(4-flurophenyl)-2,5-dimethyl-10-((trifluoromethylsulphone)methyl)-2,5-dihydro-3H-benzo[c]pyrido[3,4-e]azepin-3-ketone] | 
4 | 44 |  | CCS(=O)(=O)Cc1ccc2c(c1)-c1cn(C)c(=O)cc1CN=C2c1cc(OC)c(F)cc1Cl [Compound 4096, 7-(2-chloro-4-fluoro-5-methoxylphenyl)-10-((ethylsulfonyl)methyl)-2-methyl-2,5-dihydro-3H-benzo[c]pyrido[3,4-e]azepin-3-ketone] | 
204 | 163 |  | CCS(=O)(=O)Cc1ccc2c(c1)C(c1ccc(F)cc1)=NCc1cc(=O)n(C)cc1-2 [Compound 4039, 9-((ethylsulfonyl)methyl)-7-(4-flurophenyl)-2-methyl-2,5-dihydro-3H-benzo[c]pyrido[3,4-e]azepin-3-ketone] | 
2 | 5 | 14 | CCS(=O)(=O)Nc1cc2c(cc1F)C(c1ccc(F)cc1)=NC(C)c1cc(=O)n(C)nc1-2 (centres unmarked) [Compound 4095, N-(9-Fluoro-7-(4-flurophenyl)-2,5-dimethyl-3-oxo-3,5-dihydropyridin-2H-benzo[c]pyridazino[3,4-e]azepin-10-yl)ethylsulfonamide] | 
1 | 2 |  | CCS(=O)(=O)Cc1ccc2c(c1)-c1cn(C)c(=O)cc1[C@H](C)N=C2c1ccncc1 [Compound 4105, (S)-10-((ethylsulfonyl)methyl)-2,5-dimethyl-7-(pyridin-4-yl)-2,5-dihydro-3H-benzo[c]pyrido[3,4-e]azepin-3-ketone] | 
184 | 109 |  | Cn1cc2c(c1C#N)CCN(c1ccc(F)cc1)c1ccc(CS(C)(=O)=O)cc1-2 [Compound 4004, 6-(4-Fluorophenyl)-2-methyl-9-(methylsulfonylmethyl)-2,4,5,6-tetrahydrobenzo[b]pyrrolo[3,4-d]azepin-3-nitrile] | 
0.8 | 5 |  | CCS(=O)(=O)Cc1ccc2c(c1)-c1cn(C)c(=O)cc1[C@H](C)N=C2c1cc(OC)c(F)cc1Cl [Compound 4102, (S)-7-(2-chloro-4-fluoro-5-methoxylphenyl)-10-((ethylsulfonyl)methyl)-2,5-dimethyl-2,5-dihydro-3H-benzo[c]pyrido[3,4-e]azepin-3-ketone] | 
12 | 12 |  | CCS(=O)(=O)Cc1ccc2c(c1)-c1cn(C)c(=O)cc1C1(CC1)N=C2c1ccc(F)cc1 [Compound 4041, 10-((ethylsulfonyl)methyl)-7-(4-flurophenyl)-2-methyl spiro[benzo[c]pyrido[3,4-e]azepin-5,1′-cyclopropane]-3(2H)-ketone] | 
3 | 20 |  | CCS(=O)(=O)Cc1ccc2c(c1)-c1nn(C)c(=O)cc1C(C)N=C2c1ccc(F)cc1Cl (centres unmarked) [Compound 4097, 7-(2-chloro-4-flurophenyl)-10-((ethylsulfonyl)methyl)-2,5-dimethyl-2,5-dihydro-3H-benzo[c]pyridazino[3,4-e]azepin-3-ketone] | 
3 | 22 |  | Cn1cc2c(cc1=O)CN=C(c1ccc(F)cc1Cl)c1ccc(CS(C)(=O)=O)cc1-2 [Compound 4098, 7-(2-chloro-4-flurophenyl)-2-methyl-10-((dimethylfulfone)methyl)-2,5-dihydro-3H-benzo[c]pyrido[3,4-e]azepin-3-ketone] | 
2 | 5 |  | CCNC(=O)C[C@@H]1N=C(c2ccc(F)cc2)c2cc(OC)c(F)cc2-c2cn(C)c(=O)cc21 [Compound 4036, (S)—N-ethyl-2-(10-fluoro-7-(4-flurophenyl)-9-methoxyl-2-methyl-3-oxo-3,5-dihydro-2H-benzo[c]pyrido[3,4-e]azepin-5-yl)acetamide] | 
0.7 | 3 |  | CCS(=O)(=O)Cc1ccc2c(c1)-c1cn(C)c(=O)cc1[C@H](C)N=C2c1ccc(F)cc1Cl [Compound 4101, (S)-7-(2-chloro-4-flurophenyl)-10-((ethylsulfonyl)methyl)-2,5-dimethyl-2,5-dihydro-3H-benzo[c]pyrido[3,4-e]azepin-3-ketone] | 
0.9 | 2 |  | CNS(=O)(=O)Cc1ccc2c(c1)-c1cn(C)c(=O)cc1N(C)N=C2c1ccc(F)cc1 [Compound 4099, 1-(7-(4-flurophenyl)-2,5-dimethyl-3-oxo-3,5-dihydro-2H-benzo[e]pyrido[4,3-c][1,2]diazepin-10-yl)-N-methylmethane sulfamide] | 
0.6 | 2 |  | CNS(=O)(=O)Cc1ccc2c(c1)-c1cn(C)c(=O)cc1[C@H](C)N=C2c1ccc(F)c(OC)c1 [Compound 4103, (S)-1-(7-(4-fluoro-3-methoxylphenyl)-2,5-dimethyl-3-oxo-3,5-dihydro-2H-benzo[c]pyrido[3,4-e]azepin-10-yl)-N-methylmethane sulfamide] | 
1 | 2 |  | CCS(=O)(=O)Cc1ccc2c(c1)-c1cn(C)c(=O)cc1[C@H](C)N=C2c1ccc(OC)c(F)c1 [Compound 4104, (S)-10-((ethylsulfonyl)methyl)-7-(3-fluoro-4-methoxylphenyl)-2,5-dimethyl-2,5-dihydro-3H-benzo[c]pyrido[3,4-e]azepin-3-ketone] | 

SMILES | IC50 (BRD4 (BD2)) [nM] | IC50 (BRD4 (BD1)) [nM] | IC50 (MV-4-11 cells; [1]) [nM] | IC50 (MV-4-11 cells; MV4-11, 72 h) [nM]
CCS(=O)(=O)Nc1cc2c(cc1Cl)C(c1ccc(F)cc1)=N[C@@H](C)c1cc(=O)n(C)cc1-2 [Compound 4058] | 1 | 1 |  | 1
